Results reported in patent US8202834B2, “Fat regulation” (FibroGen, Inc., priority 2002, dated 2012).

What was measured:
HIF-1α [1] = assay: HIF-1α in nuclear fractions, TRANSAM HIF-1 ELISA; type: cell-based, human; settings: 293A and Hep3B cells, vs vehicle; FIG. 8B
Excerpt: (§1) Compounds of the present invention for use in the present methods stabilize HIFα, inhibit HIF hydroxylase activity and/or HIFα hydroxylation, etc. Thus, compounds can be identified, e.g., by their ability to stabilize HIFα. Stabilization of HIFα using compounds and methods of the present invention was examined as follows. Human cells derived from adenovirus-transformed fetal kidney epithelium (293A), cervical epithelial adenocarcinoma (HeLa), hepatocellular carcinoma (Hep3B), squamous carcinoma (SSC-25), and lung fibroblast (HLF) tissues (see, e.g., American Type Culture Collection, Manassas Va.; and Qbiogene, Carlsbad Calif.) were separately seeded into 100 mm culture dishes and grown at 37° C., 20% O2, 5% CO2 in media as follows: HeLa cells in Dulbecco's Modification of Eagle's Medium (DMEM), 2% fetal bovine serum (FBS); HLF cells in DMEM, 10% FBS; 293A cells in DMEM, 5% FBS; and Hep3B cells in Minimal Essential Medium (MEM), Earle's BSS (Mediatech Inc., Herndon Va.), 2 mM L-glutamine, 0.1 mM non-essential amino acids, 1 mM sodium pyruvate, 10% FBS. When cell layers reached confluence, the media was replaced with OPTI-MEM media (Invitrogen Life Technologies, Carlsbad Calif.) and cell layers were incubated for approximately 24 hours in 20% O2, 5% CO2 at 37° C. A compound of the invention (compound B, D, F, G, or H) or vehicle control (0.5 to 1% DMSO) was then added to existing medium, and incubation was continued overnight.
Alternatively, nuclear fractions were prepared using a nuclear extract kit (Active Motif, Carlsbad Calif.) and were analyzed for HIF-1α using a TRANSAM HIF-1 ELISA kit (Active Motif) according to the manufacturer's instructions.

DEC1/Stra13 = DEC1/Stra13 expression in tissues after 4 days of oral dosing; type: in vivo, mouse; settings: adipose, kidney, liver and muscle; oral gavage once per day for 4 days, 4 h after final dose; FIG. 3B
Method: (§2) To further investigate the effect of the methods and compounds of the present invention on expression of adipogenic factors, twelve Swiss Webster male mice (30-32 g) obtained from Simonsen, Inc. were treated by oral gavage once per day for 4 days with 4 ml/kg volume of either 0.5% CMC (0 mg/kg/day), 25 mg/ml compound D in 0.5% CMC (100 mg/kg/day), or 7.5 mg/ml and 25 mg/ml of compound B in 0.5% CMC (30 and 100 mg/kg/day, respectively). Four hours after the final dose, animals were anesthetized, sacrificed, and approximately 150 mg of adipose, heart, kidney, liver, lung, and muscle were isolated and stored in RNALATER solution (Ambion) at −20° C. RNA isolation and gene expression analysis was performed as described in Example 3 above.

PPAR-γ = PPAR-γ expression in tissue after 4 days of oral dosing; type: in vivo, mouse; settings: cardiac tissue; oral gavage once per day for 4 days; FIG. 3C
Method: as §2

GluT-1 [2] = assay: GluT-1 protein levels in SCC-25 cells, Western blot; type: cell-based, human; settings: 10 and 25 μM, 16 hours, FIG. 9A
Method: (§3) As the compounds and methods of the invention regulate fat metabolism, which is tightly coordinated with glucose regulation, the effect of compounds and methods on glucose uptake and metabolism was analyzed. Human SSC-25 (squamous cell carcinoma) or rat H9c2 (ventricular cardiomyocyte) cells were grown to confluence in 100 mm culture dishes at 37° C., 10% CO2 in DMEM with 10% fetal calf serum. Cells were then washed twice with PBS and incubated with vehicle control, compound D (10 and 25 μM), or compound C (5, 10, and 20 μM) for 16 hours. Plates were placed on ice, culture supernatant was removed, and lysis buffer-1 (LB-1: 10 mM Tris pH 7.4, 1 mM EDTA, 150 mM sodium chloride, 0.5% IGEPAL) was added. Cells were harvested by scraping, incubated for 15 minutes on ice, and then centrifuged at 3,000×g for 5 minutes at 4° C. The supernatant, which represents the cytosolic fraction, was collected and cytosolic proteins were separated under reducing conditions using SDS-polyacrylamide gel electrophoresis (SDS-PAGE) with equal amounts of protein loaded per lane.
(§4) SDS-PAGE was conducted at 150 V for 2 hours, after which the proteins were transferred to a PVDF membrane at 400 mA for 1.5 hours at 4° C. […]

HIF-1α [3] = assay: HIFα stabilization in cells, nuclear fraction Western blot; type: cell-based, human; settings: various cell types, overnight incubation; FIG. 8A
Excerpt: as §1, with “A compound of the invention (compound B, D, F, G, or H) or vehicle control (0.5 to 1% DMSO) was then added to existing medium, and incubation was continued overnight.” left out

[4] = Diet-induced obesity model, high-fat diet, 28 days; type: in vivo, C57BL/6J mice; settings: 75 mg/kg/day oral gavage, vs high-fat vehicle, p<0.05, FIG. 6A
Method: The effect of the present compounds and methods on fat regulation, e.g., fat uptake and storage, etc., and on regulation of body weight was analyzed as follows. C57Bl/6J mice fed a high-fat diet develop severe obesity, hyperglycemia, and hyperinsulinemia, and are a model of diet-induced obesity, Type 2 diabetes, and impaired glucose tolerance. Forty male C57BL/6J mice obtained from The Jackson Laboratory (Bar Harbor Me.) were divided into the following experimental groups: Group 1: vehicle control animals fed standard mouse chow (n=10); Group 2: vehicle control animals fed high-fat mouse chow (45% fat from Research Diets) (n=10); Group 3: animals fed high-fat mouse chow and administered 75 mg/kg/day compound E by oral gavage (n=10); Group 4: animals fed high-fat mouse chow and administered 75 mg/kg/day compound A by oral gavage (n=10). The feeding regimen was continued for 28 days with weekly measurement of body weight. Animals were then sacrificed and their organs and fat pads were harvested and weighed.

GluT-1 [5] = assay: GluT-1 protein levels in H9c2 cells, Western blot; type: cell-based, rat; settings: H9c2 cells, 5, 10 and 20 μM, 16 hours; FIG. 9A
Method: as §3, §4

## CC(C)Oc1ccc2nc(C(=O)NCC(=O)O)c(O)cc2c1 [compound F, [(3-Hydroxy-6-isopropoxy-quinoline-2-carbonyl)-amino]-acetic acid]
HIF-1α [1]
  stabilization and accumulation of HIFα: stabilization and accumulation of HIFα

## O=C(O)c1c[nH]c2c(ccc3cccnc32)c1=O [compound D, 4-Oxo-1,4-dihydro-[1,10]phenanthroline-3-carboxylic acid]
DEC1/Stra13
  DEC1/Stra13 expression: increased DEC1/Stra13 expression
PPAR-γ
  PPAR-γ expression: decreased PPAR-γ expression
GluT-1 [2]
  protein levels of GluT-1: increased protein levels of GluT-1
HIF-1α [3]
  HIFα stabilization: stabilized HIFα

## O=C(O)CNC(=O)c1nc2cc(Cl)ccc2cc1O [compound A, [(7-Chloro-3-hydroxy-quinoline-2-carbonyl)-amino]-acetic acid]
[4]
  weight gain: significantly less weight gain

## O=C(O)CNC(=O)c1ncc2cc(Oc3ccccc3)ccc2c1O [compound C, [(4-Hydroxy-7-phenoxy-isoquinoline-3-carbonyl)-amino]-acetic acid]
GluT-1 [5]
  protein levels of GluT-1: increased protein levels of GluT-1

## COC(=O)CNC(=O)c1nc(Cl)c2cc(OCc3ccccc3)ccc2c1O [compound H, [(7-Benzyloxy-1-chloro-4-hydroxy-isoquinoline-3-carbonyl)-amino]-acetic acid methyl ester]
HIF-1α [1]
  stabilization and accumulation of HIFα: stabilization and accumulation of HIFα

## COc1ccc2c(O)c(C(=O)NCC(=O)O)nc(Cl)c2c1 [compound E, [(1-Chloro-4-hydroxy-7-methoxy-isoquinoline-3-carbonyl)-amino]-acetic acid]
[4]
  weight gain: significantly less weight gain

## O=C(O)CNC(=O)c1ncccc1O [compound G, [(3-Hydroxy-pyridine-2-carbonyl)-amino]-acetic acid]
HIF-1α [1]
  stabilization and accumulation of HIFα: stabilization and accumulation of HIFα
